The text below walks through data of patent publication US5334595A, “Pyrazoloquinolones as anticancer agents” (priority 1992, dated 1994).

What all share (parameters): species or system mice
Series [1] is described as follows: In vivo antitumor assay, Colo38(sc). The following applies: mouse, in vivo. The text has this: (§1) Mice: Inbred: C3H/He and NCR-nu; and Hybrids: B6D2F1 (C57BL/6 females×DBA/2 males, CD2F1 (Balb/c females×DBS/2 males) and B6C3fl (C57BL/6×C3H) were bred at Wayne State University from strains obtained from the Frederick Cancer Research Facility, Frederick, Maryland or purchased from commercial suppliers.
(§2) Tumors: Murine Tumor: P388 and an adriamycin-resistant (ADR) subline P388/ADR leukemia and the following transplantable solid tumors of mice were used for in vivo testing: B16 melanoma (B16), pancreatic ductal adenocarcinoma No. 03 (Pane 03), colon adenocarcinoma No. 38 (colo 38), lung carcinoma No. 12 (LC 12), mammary ductal adenocarcinoma No. 16/C (Mam16C) and an adriamycin-resistant subline Mam16C/ADR. Human tumor: A single human tumor, mammary carcinoma MX-1 was used for in vivo testing. All tumors are in the Developmental Therapeutics Program frozen tumor respository, maintained by the Biological Testing Branch, Frederick Maryland. Each has a detailed description, code identification number, and list of references at the National Tumor Repository. Murine tumors were maintained in the mouse strain of origin and were transplanted in the appropriate F1 hydrid (or the strain of origin) for therapy trials. Human mammary carcinoma MX-1 (MX1) was maintained as a subcutaneous implant in either athymic Swiss (Cr: NIH(S)-nu) or athymic random bred (NCR-nu) mice and transplanted in NCR-nu for therapy trials.
(§3) Chemotherapy: For pancreatic ductal adenocarcinoma No. 3, colon adenocarcinoma No. 38 (colo 38), lung carcinoma No. 12 LC 12) and both adriamycin-sensitive (RP) and-resistant (ADR) mammary ductal adenocarcinoma No. 16 (Mam16) tumors, bilateral tumor implants were used to help ensure a more uniform tumor burden per mouse (thus reducing the requirement for greater numbers of mice per group). The animals necessary to begin an experiment were pooled, implanted bilaterally s.c. on day zero with 30-60 mg tumor fragments using a 12-gauge trocar, and again pooled before randomization to the various treatment and control groups. Chemotherapy was started within three days after tumor implantation while the number of cells per mouse was relatively small (1×10^7 -1×10^8 cells).
(§4) Quantitative end points used to assess antitumor activity included % Increased Life Span (% ILS), Tumor Cell Kill (Log10 kill), and Tumor Growth Inhibition (T/C). Long Term Survivors (45 or 60 day) were excluded from calculations of %ILS and Tumor Cell Kill.
(§5) Tumors were measured with a caliper once or twice weekly (as needed) until either tumors exceeded 1600 mg or cure was assured. Tumor weights were estimated from two-dimensional measurements: Tumor Weight (mg)=(a×b^2) / 2, where a and b are the tumor length and width (ram) respectively. Measurements were carried out simultaneously in both treatment and control groups. When the control group tumors reached approximately 750-1500 mg in size (median of group), the median tumor weight of each group was determined (including zeros). The T/C value in percent is an indication of antitumor effectiveness. The % T/C was calculated from the following formula for solid murine tumor models: [formula] where T and C are median tumor weights of the treatment and control groups, respectively. […] A T/C value <10% is indicative of a high degree of antitumor activity and is the level used by National Cancer Institute to justify further development if other requirements are met (termed DN-2 level activity). By convention the T/C value for the mammary carcinoma MX-1 models is calculated by the parameter of change in tumor weight .

For series [2], the system named is colon adenocarcinoma No. 38 (colo 38). Description: In vivo antitumor assay, Colo38(sc).
From the text: as §1, §2, §3, §4, §5

A short description of series [3]: In vivo antitumor assay, Mam16C/RP (sc). As to conditions: mouse, in vivo, drug iv.
From the text: as §1, §2, §3, §4, §5

Series [4] has as its system adriamycin-sensitive (RP) mammary ductal adenocarcinoma No. 16. The series is described as follows: In vivo antitumor assay, Mam16C/RP (sc). As to conditions: drug iv.
From the text: as §1, §2, §3, §4, §5

The nature of series [5]: In vivo antitumor assay, P388(iv). As to conditions: mouse, in vivo, drug iv, qd 1-3, exp 1155A.
From the text: as §1
as §2, with “Human mammary carcinoma MX-1 (MX1) was maintained as a subcutaneous implant in either athymic Swiss (Cr: NIH(S)-nu) or athymic random bred (NCR-nu) mice and transplanted in NCR-nu for therapy trials.” left out
(§6) Quantitative end points used to assess antitumor activity included % Increased Life Span (% ILS), Tumor Cell Kill (Log10 kill), and Tumor Growth Inhibition (T/C). […]
(§7) Endpoints were calculated as follows: [formula] where Dt is the median day of death for treated and Dc is the median day of death for control groups. […] Minimum quantitative activity limits for additional P388 models (e.g. P388/ADR and P388, IV) have not been defined. […]
(§8) The log10 cell kill was calculated from the following formula: [formula] where T-C is the tumor difference in the median day of death between the treated (T) and the control (C) groups and Td is the tumor doubling time (in days), the latter estimated from the best fit straight line from a log-linear growth plot of the control-group tumors in exponential growth. […]

The subject of another series is P388 leukemia. Description: In vivo antitumor assay, P388(iv). As to conditions: drug iv, qd 1-3, exp 1155A.
From the text: as §1
as §2, with “Human mammary carcinoma MX-1 (MX1) was maintained as a subcutaneous implant in either athymic Swiss (Cr: NIH(S)-nu) or athymic random bred (NCR-nu) mice and transplanted in NCR-nu for therapy trials.” left out
as §6, §7, §8

For series [6], the system named is pancreatic ductal adenocarcinoma No. 03. The series is described as follows: In vivo antitumor assay, Panc03(sc). The following applies: for Log Kill: Panc03(sc), drug iv.
Where [7] appears, read: drug iv, sc, iv, qd 3-16, exp 1038.
Setting [8] is: Mam16C/RP (sc), bid 1-5, exp 924.
Setting [9] is: drug iv, qd 3-4, bid 5,6,12-17, exp 1036.
Where [10] appears, read: drug iv,sc: iv, qd 3-9, sc, qd 11-19, exp 1163.

Consider `Cc1cc(-c2c(F)cc3c4nn(CCN(C)C)c(=O)c-4cn(C4CC4)c3c2F)cc(C)n1.O=C(O)/C=C/C(=O)O` [Example 1, 5-Cyclopropyl-6,8-difluoro-2,5-dihydro-2-[2-(dimethylamino)-ethyl]-7-(2,6-dimethyl-4-pyridinyl)-3H-pyrazolo[4,3-c]quinolin-3-one (E)-2-butendioate (1:1)], for which the MTD in series [1] (drug iv, qd 3,7,11, exp 1038) stood at 78 mg/kg; in series [1] (setting [7]) it was 58 mg/kg; in series [3] (setting [8]) it was 20 mg/kg; in series [5], 37 mg/kg. Moreover, the “Log Kill” value came out at 0.60 in series [2] (drug iv, qd 3,7,11, exp 1038); 1.2 in series [2] (setting [7]); 1.2 in series [4] (setting [8]); 5.4 with P388 leukemia; 0.66 in series [6] (qd 3,6,9, exp 1146); 0.66 in series [6] (qd 3, exp 895A). The T/C % in series [2] (drug iv, qd 3,7,11, exp 1038) was found to be 14%; in series [2] (setting [7]), 0%; in series [4] (setting [8]), 13%. For the same molecule, in the series on P388 leukemia, the ILS % is 82%.

As to `Cc1cc(-c2c(F)cc3c4nn(CCCN(C)C)c(=O)c-4cn(C4CC4)c3c2F)cc(C)n1` [Example 14], the MTD in series [1] (drug iv, qd 3,12-14, exp 905) was found to be 133 mg/kg; in series [3] (Mam16C/RP, bid 1-8, exp 924), 101 mg/kg; in series [6] (mouse, in vivo, iv), 64 Mg/Kg. Further, the “Log Kill” value in series [2] (drug iv, qd 3,12-14, exp 905) is 0.54; in series [4] (Mam16C/RP, bid 1-8, exp 924), 1.5; in series [6] (qd 3-5, exp 895A), 0.60. Besides, the T/C % in series [2] (drug iv, qd 3,12-14, exp 905) is given as 38%; in series [4] (Mam16C/RP, bid 1-8, exp 924), 8%.

On to `Cc1cc(-c2c(F)cc3c4nn([C@H]5CC[C@@H](N(C)C)CC5)c(=O)c-4cn(C4CC4)c3c2F)cc(C)n1` [Example 51a], for which the MTD in series [1] (setting [9]) is 63 mg/kg. The T/C % in series [2] (setting [9]) was 39%.

`Cc1cc(-c2c(F)cc3c4nn([C@H]5CC[C@H](N(C)C)CC5)c(=O)c-4cn(C4CC4)c3c2F)cc(C)n1` [Example 51b] came in with an MTD in series [1] (drug iv, qd 3-4,15,17, bid 5.7, exp 1036, MTD not achieved, maximum dose tested) of more than 220 mg/kg. Besides, in series [2] (drug iv, qd 3-4,15,17, bid 5.7, exp 1036), the T/C % is 13%.

`Cc1cc(-c2c(F)cc3c4nn([C@H]5CC[C@@H](N)CC5)c(=O)c-4cn(C4CC4)c3c2F)cc(C)n1` [Example 56a, 2-(Cis-4-Aminocyclohexyl)-5-cyclopropyl-6,8-difluoro-2,5-dihydro-7-(2,6-dimethyl-4-pyridinyl)-3H-pyrazolo-[4,3-c]quinolin-3-one] came in with an MTD in series [1] (setting [10]) of 137 mg/kg. The T/C % in series [2] (setting [10]) was 40%.
